Test results as given in ChEMBL document CHEMBL1158089, “Indoleamine 2,3-dioxygenase inhibitors from the Northeastern Pacific Marine Hydroid Garveia annulata” (J Nat Prod, 2006).

These compounds were tested against Indoleamine 2,3-dioxygenase 1 (Homo sapiens, UniProt P14902) (assay: Inhibition of human indoleamine 2,3-dioxygenase expressed in Escherichia coli by spectrophotometric activity assay).
Indoleamine 2,3-dioxygenase 1, sequence (P14902 whole entry): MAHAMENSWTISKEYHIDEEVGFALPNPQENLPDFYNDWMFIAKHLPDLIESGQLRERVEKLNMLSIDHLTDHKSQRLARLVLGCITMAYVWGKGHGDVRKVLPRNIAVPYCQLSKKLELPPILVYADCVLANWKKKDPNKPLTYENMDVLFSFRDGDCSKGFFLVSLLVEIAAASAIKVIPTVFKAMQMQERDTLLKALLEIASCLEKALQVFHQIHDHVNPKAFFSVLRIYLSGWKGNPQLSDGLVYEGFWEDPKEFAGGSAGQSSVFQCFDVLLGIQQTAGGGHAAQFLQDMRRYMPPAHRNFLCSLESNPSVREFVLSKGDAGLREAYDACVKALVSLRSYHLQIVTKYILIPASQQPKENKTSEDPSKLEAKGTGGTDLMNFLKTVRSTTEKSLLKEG

Ki | SMILES
140 nM | CCc1c(C)cc2c(c1O)C(=O)C1=C(C2=O)C(C)(C)OC1(OC)C(=O)OC (stereo not drawn) [ANNULIN C]
1200 nM | COc1c(C(C)=O)c(C)cc2cc3c(c(O)c12)C(=O)C(C)(C)C(=O)C3(C)C [GARVEATIN C]
1400 nM | CCC1=C(C)C(=O)c2cc3c(c(O)c2C1=O)C(=O)C(C)(O)C(=O)C3(C)C (stereo not drawn)
